This passage reports Activity results from ChEMBL document CHEMBL2375284, “Novel hybrids of natural isochroman-4-one bearing N-substituted isopropanolamine as potential antihypertensive candidates” (Bioorg Med Chem, 2013).

The structures appear in SMILES notation.

For series [1], the system named is Rattus norvegicus. As to the kind of experiment: Antihypertensive activity in rat spontaneous hypertensive model assessed as systolic arterial blood pressure at 80 mg/kg, po measured at 0.5 hrs by tail-cuff method (reference value: 178.5 +/- 10.13 mmHg). It is filed as functional, Artery.
The subject of series [2] is Rattus norvegicus. As to the kind of experiment: Toxicity in rat spontaneous hypertensive model assessed as heart rate at 80 mg/kg, po measured at 4 hrs by tail-cuff method (reference value: 403.1 +/- 15.92 bpm). The class given is organism-based. More on the design: dose 80 mg/kg, route oral. The note with it: in vivo.
In series [3] the test system is Rattus norvegicus. As to the kind of experiment: Antihypertensive activity in rat spontaneous hypertensive model assessed as systolic arterial blood pressure at 80 mg/kg, po measured at 4 hrs by tail-cuff method (reference value: 172.9 +/- 10.21 mmHg). The class given is functional, Artery.
Series [4] concerns Rattus norvegicus. As to the kind of experiment: Antihypertensive activity in rat spontaneous hypertensive model assessed as mean arterial blood pressure at 80 mg/kg, po measured at 0.5 hrs by tail-cuff method (reference value: 156.2 +/- 7.21 mmHg). It is filed as functional, Artery.
Series [5] deals with Rattus norvegicus. As to the kind of experiment: Antihypertensive activity in rat spontaneous hypertensive model assessed as diastolic arterial blood pressure at 80 mg/kg, po measured at 8 hrs by tail-cuff method (reference value: 135.3 +/- 8.21 mmHg). The class given is functional, Artery.
In series [6] the test system is Rattus norvegicus. As to the kind of experiment: Toxicity in rat spontaneous hypertensive model assessed as heart rate at 80 mg/kg, po measured at 0.5 hrs by tail-cuff method (reference value: 406.5 +/- 13.15 bpm). The note with it: in vivo. More on the design: dose 80 mg/kg, route oral. The class given is organism-based.
The subject of series [7] is Rattus norvegicus. As to the kind of experiment: Antihypertensive activity in rat spontaneous hypertensive model assessed as diastolic arterial blood pressure at 80 mg/kg, po measured at 0.5 hrs by tail-cuff method (reference value: 138.7 +/- 9.2 mmHg). The class given is functional, Artery.
Series [8] has as its system Rattus norvegicus. As to the kind of experiment: Antihypertensive activity in rat spontaneous hypertensive model assessed as mean arterial blood pressure at 80 mg/kg, po measured at 2 hrs by tail-cuff method (reference value: 157.41 +/- 9.62 mmHg). The class given is functional, Artery.
Series [9] has as its system Rattus norvegicus. As to the kind of experiment: Antihypertensive activity in rat spontaneous hypertensive model assessed as diastolic arterial blood pressure at 80 mg/kg, po measured at 4 hrs by tail-cuff method (reference value: 141.4 +/- 7.11 mmHg). It is filed as functional, Artery.
The subject of series [10] is Rattus norvegicus. As to the kind of experiment: Toxicity in rat spontaneous hypertensive model assessed as heart rate at 80 mg/kg, po measured at 6 hrs by tail-cuff method (reference value: 405.1 +/- 24 bpm). Particulars: in vivo. More on the design: dose 80 mg/kg, route oral. The class given is organism-based.
The subject of series [11] is Rattus norvegicus. As to the kind of experiment: Antihypertensive activity in rat spontaneous hypertensive model assessed as systolic arterial blood pressure at 80 mg/kg, po measured at 8 hrs by tail-cuff method (reference value: 174 +/- 12.1 mmHg). It is filed as functional, Artery.
In series [12] the test system is Rattus norvegicus. As to the kind of experiment: Antihypertensive activity in rat spontaneous hypertensive model assessed as mean arterial blood pressure at 80 mg/kg, po measured at 8 hrs by tail-cuff method (reference value: 155.8 +/- 11.54 mmHg). The class given is functional, Artery.
The subject of series [13] is Rattus norvegicus. As to the kind of experiment: Antihypertensive activity in rat spontaneous hypertensive model assessed as systolic arterial blood pressure at 80 mg/kg, po measured at 6 hrs by tail-cuff method (reference value: 176.7 +/- 15.21 mmHg). It is filed as functional, Artery.
The test system of series [14] is Rattus norvegicus. As to the kind of experiment: Antihypertensive activity in rat spontaneous hypertensive model assessed as mean arterial blood pressure at 80 mg/kg, po measured at 6 hrs by tail-cuff method (reference value: 155.8 +/- 7.97 mmHg). It is filed as functional, Artery.
For series [15], the system named is Rattus norvegicus. As to the kind of experiment: Toxicity in rat spontaneous hypertensive model assessed as heart rate at 80 mg/kg, po measured at 8 hrs by tail-cuff method (reference value: 397.2 +/- 24.87 bpm). It is filed as organism-based. Particulars: in vivo. The arrangement: dose 80 mg/kg, route oral.
Series [16] has as its system Rattus norvegicus. As to the kind of experiment: Antihypertensive activity in rat spontaneous hypertensive model assessed as diastolic arterial blood pressure at 80 mg/kg, po measured at 2 hrs by tail-cuff method (reference value: 142.9 +/- 18.07 mmHg). The class given is functional, Artery.
The subject of series [17] is Rattus norvegicus. As to the kind of experiment: Toxicity in rat spontaneous hypertensive model assessed as heart rate at 80 mg/kg, po measured at 2 hrs by tail-cuff method (reference value: 399.5 +/- 19.68 bpm). It is filed as organism-based. The note with it: in vivo. The arrangement: dose 80 mg/kg, route oral.
Series [18] deals with Rattus norvegicus. As to the kind of experiment: Toxicity in rat spontaneous hypertensive model assessed as heart rate at 80 mg/kg, po measured at 1 hr by tail-cuff method (reference value: 403.9 +/- 12.41 bpm). The note with it: in vivo. It is filed as organism-based. More on the design: dose 80 mg/kg, route oral.
Series [19] has as its system Rattus norvegicus. As to the kind of experiment: Antihypertensive activity in rat spontaneous hypertensive model assessed as systolic arterial blood pressure at 80 mg/kg, po measured at 1 hr by tail-cuff method (reference value: 181.2 +/- 16.37 mmHg). The class given is functional, Artery.
Series [20] has as its system Rattus norvegicus. As to the kind of experiment: Antihypertensive activity in rat spontaneous hypertensive model assessed as mean arterial blood pressure at 80 mg/kg, po measured at 1 hr by tail-cuff method (reference value: 158.9 +/- 13.65 mmHg). It is filed as functional, Artery.
Series [21] relates to Rattus norvegicus. As to the kind of experiment: Antihypertensive activity in rat spontaneous hypertensive model assessed as mean arterial blood pressure at 80 mg/kg, po measured at 4 hrs by tail-cuff method (reference value: 154.4 +/- 20.1 mmHg). It is filed as functional, Artery.
For series [22], the system named is Rattus norvegicus. As to the kind of experiment: Antihypertensive activity in rat spontaneous hypertensive model assessed as diastolic arterial blood pressure at 80 mg/kg, po measured at 1 hr by tail-cuff method (reference value: 146.2 +/- 13.19 mmHg). The class given is functional, Artery.
Series [23] deals with Rattus norvegicus. As to the kind of experiment: Antihypertensive activity in rat spontaneous hypertensive model assessed as diastolic arterial blood pressure at 80 mg/kg, po measured at 6 hrs by tail-cuff method (reference value: 141.2 +/- 7.34 mmHg). The class given is functional, Artery.
For series [24], the system named is Rattus norvegicus. As to the kind of experiment: Antihypertensive activity in rat spontaneous hypertensive model assessed as systolic arterial blood pressure at 80 mg/kg, po measured at 2 hrs by tail-cuff method (reference value: 172.6 +/- 17.3 mmHg). The class given is functional, Artery.

With `COc1cc2c(cc1OCC(O)CNC(C)C)C(=O)C(C)OC2` (configuration not stated), the Activity came to 174.1 mmHg in series [1]; 358.5 bpm in series [2]; 166.6 mmHg in series [3]; 134 mmHg in series [4]; 107.7 mmHg in [5]; 367 bpm in series [6]. Moreover, the Activity in [7] is reported as 113.7 mmHg; in [8] it was 122.1 mmHg; in series [9], 99.8 mmHg; in series [10] it was 355.2 bpm; in [11] it was 162.6 mmHg; in [12], 124.2 mmHg. The Activity was 164.2 mmHg in series [13]; 121 mmHg in series [14]; 367.7 bpm in series [15]; 101 mmHg in [16]; 356.9 bpm in series [17]; 365.6 bpm in [18]. Further, the Activity in [19] is reported as 164.5 mmHg; in series [20], 128.8 mmHg; in series [21] it was 118.1 mmHg; in series [22] it was 113.9 mmHg; in [23], 99 mmHg; in series [24], 165.7 mmHg.
For `COc1cc2c(cc1OCC(O)CNC(C)C)COC(C)C2=O` (configuration not stated), the Activity amounted to 169.2 mmHg in series [1]; 361.4 bpm in series [2]; 141 mmHg in series [3]; 142.2 mmHg in series [4]; 98 mmHg in series [5]; 385.4 bpm in series [6]. Besides, the Activity is 128.7 mmHg in series [7]; 103.9 mmHg in [8]; 83 mmHg in [9]; 370 bpm in series [10]; 158.3 mmHg in series [11]; 119 mmHg in series [12]. In addition, the Activity is given as 150.5 mmHg in series [13]; 114 mmHg in [14]; 372.8 bpm in series [15]; 84.1 mmHg in [16]; 365.1 bpm in series [17]; 378.3 bpm in series [18]. In addition, the Activity was found to be 160.9 mmHg in [19]; 123.1 mmHg in series [20]; 97.8 mmHg in series [21]; 102.8 mmHg in series [22]; 91.4 mmHg in series [23]; 152.8 mmHg in series [24].
Turning to `COc1ccc2c(c1OCC(O)CNC(C)C)COC(C)C2=O` (configuration not stated), the Activity in series [1] amounted to 175.3 mmHg; in series [2] it was 373.2 bpm; in [3] it was 170.9 mmHg; in series [4], 144.8 mmHg; in series [5] it was 122.9 mmHg; in [6], 383.4 bpm. In addition, the Activity is recorded as 129.6 mmHg in series [7]; 129.3 mmHg in [8]; 117.7 mmHg in series [9]; 374.7 bpm in series [10]; 166.3 mmHg in series [11]; 137.4 mmHg in series [12]. The Activity amounted to 168 mmHg in series [13]; 138.9 mmHg in [14]; 372.8 bpm in [15]; 109.5 mmHg in [16]; 368.8 bpm in series [17]; 375 bpm in series [18]. For the same molecule, the Activity stood at 170.1 mmHg in series [19]; 133.1 mmHg in series [20]; 135.4 mmHg in [21]; 114.6 mmHg in [22]; 124.4 mmHg in [23]; 169 mmHg in series [24].
